The source of these data is patent US9481676B2, “Azepino[4,5-B]indoles and methods of use” (Medivation Technologies, Inc., priority 2008, dated 2016).

For this test, the target named is T1, human recombinant serotonin (5-Hydroxytryptamine) 5-HT2C receptor (Homo sapiens, UniProt P28335).
T1 construct: expressed in transfected cells; host or cells: CHO-K1 cells
T1 sequence (P28335 33-458): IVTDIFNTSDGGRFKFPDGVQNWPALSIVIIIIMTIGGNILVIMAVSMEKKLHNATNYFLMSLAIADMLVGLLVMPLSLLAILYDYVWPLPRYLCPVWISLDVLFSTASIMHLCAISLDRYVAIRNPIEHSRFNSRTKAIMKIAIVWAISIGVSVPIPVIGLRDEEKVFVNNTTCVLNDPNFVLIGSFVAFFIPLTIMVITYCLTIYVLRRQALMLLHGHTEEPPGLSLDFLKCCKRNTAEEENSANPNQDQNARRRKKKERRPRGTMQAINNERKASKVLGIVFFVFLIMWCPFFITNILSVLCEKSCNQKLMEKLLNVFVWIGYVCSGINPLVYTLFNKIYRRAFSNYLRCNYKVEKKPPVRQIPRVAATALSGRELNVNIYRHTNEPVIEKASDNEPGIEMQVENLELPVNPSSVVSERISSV
In words: Serotonin 5-HT2C radioligand binding ([3H]Mesulergine). Conditions: compound at 1 μM; read-out: Serotonin (1 μM) 5-HT2C, percent inhibition of specific binding. An outline of the steps: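 Membranes from CHO-K1 cells expressing human 5-HT2C, incubated with 1 nM [3H]mesulergine for 60 min at 25 °C in 50 mM Tris-HCl pH 7.4 with ascorbic acid and pargyline.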
Take `COc1ccc(C(O)Cn2c3c(c4cc(C)ccc42)CCN(C)CC3)cc1` (stereo not shown) [Compound No. 48, 2-(2,3,4,5-tetrahydro-3,9-dimethylazepino[4,5-b]indol-6(1H)-yl)-1-(4-methoxyphenyl) ethanol]: the inhibition (as a rule, the relative decrease from the control value, in per cent) at 1 µM is 98%. With `Cc1ccc2c(c1)c1c(n2CCc2cncc(Cl)c2)CCN(C)CC1` [Compound No. 4, 6-(2-(5-chloropyridin-3-yl)ethyl)-1,2,3,4,5,6-hexahydro-3,9-dimethylazepino[4,5-b]indole] the figure was 89%. On to `CC(C)NC(=O)Cn1c2c(c3cc(Cl)ccc31)CCN(C)CC2` [Compound No. 31, 2-(9-chloro-2,3,4,5-tetrahydro-3-methylazepino[4,5-b]indol-6(1H)-yl)-N-isopropylacetamide], for which the inhibition at 1 µM came out at 56%.

With `CN1CCc2c(n(CC(=O)OCc3ccccc3)c3ccc(Cl)cc23)CC1` [Compound No. 75, Benzyl-2-(9-chloro-2,3,4,5-tetrahydro-3-methylazepino[4,5-b]indol-6(1H)-yl)acetate], the inhibition at 1 µM was 13%.

For the compound `Cc1ccc2c(c1)c1c(n2CC(O)c2ccc(F)cc2F)CCN(C)CC1` (stereo not shown) [Compound No. 59, 1-(2,4-difluorophenyl)-2-(2,3,4,5-tetrahydro-3,9-dimethylazepino[4,5-b]indol-6(1H)-yl)ethanol], the inhibition at 1 µM is -3%. The value for `Cc1ccc(C(O)Cn2c3c(c4cc(Cl)ccc42)CCN(C)CC3)cc1` (stereo not shown) [Compound No. 26, 2-(9-chloro-2,3,4,5-tetrahydro-3-methylazepino[4,5-b]indol-6(1H)-yl)-1-p-tolylethanol] was 93%.

Turning to `Cc1ccc2c(c1)c1c(n2CC(=O)Nc2ccc(F)cc2)CCN(C)CC1` [Compound No. 44, N-(4-fluorophenyl)-2-(2,3,4,5-tetrahydro-3,9-dimethylazepino[4,5-b]indol-6(1H)-yl)acetamide], the inhibition at 1 µM worked out at 41%. `CN1CCc2c(n(C#Cc3ccc(Cl)cc3)c3ccc(Cl)cc23)CC1` [Compound No. 282, 9-chloro-6-((4-chlorophenyl)ethynyl)-3-methyl-1,2,3,4,5,6-hexahydroazepino[4,5-b]indole]: the inhibition at 1 µM amounted to 103%. In the case of `CN1CCc2c(n(CCc3ccc(C(=O)O)nc3)c3ccc(Cl)cc23)CC1` [Compound No. 21, 5-(2-(9-chloro-2,3,4,5-tetrahydro-3-methylazepino[4,5-b]indol-6(1H)-yl)ethyl)pyridine-2-carboxylic acid], the inhibition at 1 µM was found to be 29%. As to `Cc1ccc2c(c1)c1c(n2CCc2ccccc2Cl)CCN(C)CC1` [Compound No. 69, 6-(2-chlorophenethyl)-1,2,3,4,5,6-hexahydro-3,9-dimethylazepino[4,5-b]indole], the inhibition at 1 µM was -1%. Consider `Cc1ccc(C(O)Cn2c3c(c4cc(C)ccc42)CCN(C)CC3)cc1` (stereo not shown) [Compound No. 27, 2-(2,3,4,5-tetrahydro-3,9-dimethylazepino[4,5-b]indol-6(1H)-yl)-1-p-tolylethanol], for which the inhibition at 1 µM turned out to be 91%. The value for `Cc1ccc2c(c1)c1c(n2CCc2ccccc2)CCN(C)CC1` [Compound No. 62, 1,2,3,4,5,6-hexahydro-3,9-dimethyl-6-phenethylazepino[4,5-b]indole] was 101%; that for `Cc1ccc(CCn2c3c(c4cc(Cl)ccc42)CCN(C)CC3)cc1` [Compound No. 46, 9-chloro-3-methyl-6-(4-methylphenethyl)-1,2,3,4,5,6-hexahydroazepino[4,5-b]indole] was 98%; that for `CN1CCc2c(n(CCc3ccc(Cl)cc3)c3ccc(Cl)cc23)CC1` [Compound No. 30, 6-(4-chlorophenethyl)-9-chloro-1,2,3,4,5,6-hexahydro-3-methylazepino[4,5-b]indole] was 98%. For the compound `CN1CCc2c(n(CC(=O)N(C)C3CCCCC3)c3ccc(Cl)cc23)CC1` [Compound No. 74, 2-(9-chloro-2,3,4,5-tetrahydro-3-methylazepino[4,5-b]indol-6(1H)-yl)-N-cyclohexyl-N-methylacetamide], the inhibition at 1 µM worked out at 1%. Take `COc1ccc(C(O)Cn2c3c(c4cc(C)ccc42)CCN(C)CC3)c(F)c1` (stereo not shown) [Compound No. 50, 1-(2-fluoro-4-methoxyphenyl)-2-(2,3,4,5-tetrahydro-3,9-dimethylazepino[4,5-b]indol-6(1H)-yl)ethanol]: the inhibition at 1 µM came out at 95%. The value for `CN1CCc2c(n(CC(O)c3ccc(F)cc3)c3ccc(Cl)cc23)CC1` (stereo not shown) [Compound No. 51, 2-(9-chloro-2,3,4,5-tetrahydro-3-methylazepino[4,5-b]indol-6(1H)-yl)-1-(4-fluorophenyl) ethanol] was 98%; that for `C/C(=C\n1c2c(c3cc(Cl)ccc31)CCN(C)CC2)c1ccc(Cl)cc1Cl` [Compound No. 239, (E)-9-chloro-6-(2-(2,4-dichlorophenyl)prop-1-enyl)-3-methyl-1,2,3,4,5,6-hexahydroazepino[4,5-b]indole] was 97%. With `CN1CCc2c(n(CCc3ccncc3)c3ccc(Cl)cc23)CC1` [Compound No. 5, 9-chloro-1,2,3,4,5,6-hexahydro-3-methyl-6-(2-(pyridin-4-yl)ethyl)azepino[4,5-b]indole] the figure was 90%. Turning to `C/C(=C\n1c2c(c3cc(C)ccc31)CCN(C)CC2)c1ccc(Cl)cc1` [Compound No. 33, 6-((E)-2-(4-chlorophenyl)prop-1-enyl)-1,2,3,4,5,6-hexahydro-3,9-dimethylazepino[4,5-b]indole], the inhibition at 1 µM is 86%.

Turning to `CN1CCc2c(n(CCc3ccccc3Cl)c3ccc(Cl)cc23)CC1` [Compound No. 29, 6-(2-chlorophenethyl)-9-chloro-1,2,3,4,5,6-hexahydro-3-methylazepino[4,5-b]indole], the inhibition at 1 µM worked out at 101%. `C=C(Cn1c2c(c3cc(Cl)ccc31)CCN(C)CC2)c1ccc(Cl)cc1` [Compound No. 35, 9-chloro-6-(2-(4-chlorophenyl)allyl)-3-methyl-1,2,3,4,5,6-hexahydroazepino[4,5-b]indole]: the inhibition at 1 µM is 91%.

`CN1CCc2c(n(CC(O)c3ccccc3F)c3ccc(Cl)cc23)CC1` (stereo not shown) [Compound No. 40, 2-(9-chloro-2,3,4,5-tetrahydro-3-methylazepino[4,5-b]indol-6(1H)-yl)-1-(2-fluorophenyl)ethanol]: the inhibition at 1 µM worked out at 97%. As for `Cc1ccc2c(c1)c1c(n2CC(O)c2ccccc2)CCN(C)CC1` (stereo not shown) [Compound No. 25, 2-(2,3,4,5-tetrahydro-3,9-dimethylazepino[4,5-b]indol-6(1H)-yl)-1-phenylethanol], the inhibition at 1 µM was determined as 94%. In the case of `CN1CCc2c(n(CC(C)(O)c3ccc(F)cc3)c3ccc(Cl)cc23)CC1` (stereo not shown) [Compound No. 13, 1-(9-chloro-2,3,4,5-tetrahydro-3-methylazepino[4,5-b]indol-6(1H)-yl)-2-(4-fluorophenyl)propan-2-ol], the inhibition at 1 µM was 89%. Consider `Cc1ccc2c(c1)c1c(n2CC(=O)NC(C)C)CCN(C)CC1` [Compound No. 54, 2-(2,3,4,5-tetrahydro-3,9-dimethylazepino[4,5-b]indol-6(1H)-yl)-N-isopropylacetamide], for which the inhibition at 1 µM is -2%.

Regarding `Cc1ccc2c(c1)c1c(n2/C=C/c2ccc(Cl)cc2)CCN(C)CC1` [Compound No. 235, (E)-6-(4-chlorostyryl)-3,9-dimethyl-1,2,3,4,5,6-hexahydroazepino[4,5-b]indole], the inhibition at 1 µM turned out to be 98%. As to `CN1CCc2c(n(CCc3ccccn3)c3ccc(Cl)cc23)CC1` [Compound No. 8, 9-chloro-1,2,3,4,5,6-hexahydro-3-methyl-6-(2-(pyridin-2-yl)ethyl)azepino[4,5-b]indole], the inhibition at 1 µM turned out to be 95%. Turning to `C/C(=C\n1c2c(c3cc(Cl)ccc31)CCN(C)CC2)c1ccc(Cl)cc1` [Compound No. 36, 9-chloro-6-((E)-2-(4-chlorophenyl)prop-1-enyl)-1,2,3,4,5,6-hexahydro-3-methylazepino[4,5-b]indole], the inhibition at 1 µM came to 83%. Take `CN1CCc2c(n(CC(=O)Nc3ccc(F)cc3)c3ccc(Cl)cc23)CC1` [Compound No. 37, 2-(9-chloro-2,3,4,5-tetrahydro-3-methylazepino[4,5-b]indol-6(1H)-yl)-N-(4-fluorophenyl) acetamide]: the inhibition at 1 µM amounted to 85%. Turning to `CN1CCc2c(n(CC(O)c3ccc(F)c(F)c3)c3ccc(Cl)cc23)CC1` (stereo not shown) [Compound No. 58, 2-(9-chloro-2,3,4,5-tetrahydro-3-methylazepino[4,5-b]indol-6(1H)-yl)-1-(3,4-difluorophenyl)ethanol], the inhibition at 1 µM was 16%. Regarding `CN1CCc2c(n(CCc3ccccc3F)c3ccc(Cl)cc23)CC1` [Compound No. 61, 6-(2-fluorophenethyl)-9-chloro-1,2,3,4,5,6-hexahydro-3-methylazepino[4,5-b]indole], the inhibition at 1 µM was 89%. The value for `C/C(=C\n1c2c(c3cc(C)ccc31)CCN(C)CC2)c1ccc(F)cc1` [Compound No. 34, 6-((E)-2-(4-fluorophenyl)prop-1-enyl)-1,2,3,4,5,6-hexahydro-3,9-dimethylazepino[4,5-b]indole] was 97%; that for `CN1CCc2c(n(CC(O)c3ccccc3)c3ccc(Cl)cc23)CC1` (stereo not shown) [Compound No. 24, 2-(9-chloro-2,3,4,5-tetrahydro-3-methylazepino[4,5-b]indol-6(1H)-yl)-1-phenylethanol] was 95%.
